Read-outs that look alike come from different tables or passages of the source.
Target: T1, HDM2 (Homo sapiens, UniProt Q00987)
T1 construct: Thioredoxin (N); made in house; host or cells: E. coli strain BL21(DE3)Rosetta
Experiment: HDM2 FRET assay (inhibition of binding of FITC labeled p53-pocket peptide to HDM2)
Details: for IC50: read-out: FRET IC50
In short: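 Signal is read as the 520/495 nm emission ratio and converted to percent inhibition; nonlinear sigmoidal regression yields IC50. The assay mixes HDM2 (0.5 nM), FITC-p53 peptide (3 nM) and Tb anti-His antibody (0.25 nM) at 0.1% DMSO.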

[1] = 0.5 nM HDM2 (residues 17 to 125), 3nM peptide, two hour incubation at room temperature

T1 sequence (Q00987 17-125): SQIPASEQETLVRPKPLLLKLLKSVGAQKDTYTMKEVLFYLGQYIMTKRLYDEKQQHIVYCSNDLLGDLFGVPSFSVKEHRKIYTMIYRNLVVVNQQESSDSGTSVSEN

C[C@@H](Nc1nc(-c2noc(=O)[nH]2)nc2nc(Sc3ccccc3)n(C[C@H]3CC[C@H](C)CC3)c12)C1CCC1 [Example 19.1, 3-[6-{[(1R)-1-cyclobutylethyl]amino}-7-[(trans-4-methylcyclohexyl)methyl]-8-(phenylsulfanyl)-7H-purin-2-yl]-1,2,4-oxadiazol-5(4H)-one]
IC50 (Table 19): 0.763 nM

Cc1cccc(-c2nc3nc(C(=O)O)nc(NC(C4CC4)C4CC4)c3n2Cc2ccc(C(F)(F)F)cc2)c1 [Example 6.24, 6-[(dicyclopropylmethyl)amino]-8-(3-methylphenyl)-7-[4-(trifluoromethyl)benzyl]-7H-purine-2-carboxylic acid]
IC50 (Table 6): 329 nM

C[C@@H](Nc1nc(-c2noc(=O)[nH]2)nc2nc(C(C)(O)c3cscn3)n(C[C@H]3CC[C@H](C)CC3)c12)C1CCC1 (stereo partly drawn) [Example 22.50, 3-(6-{[(1R)-1-cyclobutylethyl]amino}-8-[1-hydroxy-1-(1,3-thiazol-4-yl)ethyl]-7-[(trans-4-methylcyclohexyl)methyl] -7H-purin-2-yl)-1,2,4-oxadiazol-5(4H)-one]
IC50 (Table 22): 10.3 nM

CC(=O)c1nc(N[C@H](C)C2CCC2)c2c(n1)nc(N1CCOC[C@H]1c1ccccc1)n2C[C@H]1CC[C@H](C)CC1 [Example 12.21, 1-(6-{[(1R)-1-cyclobutylethyl]amino}-7-[(trans-4-methylcyclohexyl)methyl]-8-[(3R)-3-phenylmorpholin-4-yl]-7H-purin-2-yl)ethanone]
IC50 [1]: 53.3 nM

C[C@H]1CC[C@H](Cn2c(C(=O)C3CCOCC3)nc3nc(-c4noc(=O)[nH]4)nc(-c4cccc(Cl)c4)c32)CC1 [Example 23.3, 3-[6-(3-chlorophenyl)-7-[(trans-4-methylcyclohexyl)methyl]-8-(tetrahydro-2H-pyran-4-ylcarbonyl)-7H-purin-2-yl]-1,2,4-oxadiazol-5(4H)-one]
IC50 (Table 23): 21.4 nM

CC[C@H](Nc1nc2nc(-c3n[nH]c(=O)o3)nc(-c3cccc(Cl)c3)c2n1C[C@H]1CC[C@H](C)CC1)c1ccccc1 [Example 16.61, 5-[6-(3-chlorophenyl)-7-[(trans-4-methylcyclohexyl)methyl]-8-{[(1S)-1-phenylpropyl]amino} -7H-purin-2-yl]-1,3,4-oxadiazol-2(3H)-one]
IC50 [1]: 9.67 nM

C[C@@H](Nc1nc(-c2noc(=O)[nH]2)nc2nc(N3CCOC[C@H]3Cc3ccccc3)n(C[C@H]3CC[C@H](C)CC3)c12)C1CCC1 [Example 11.101, 3-{8-[(3R)-3-benzylmorpholin-4-yl]-6-{[(1R)-1-cyclobutylethyl]amino}-7-[(trans-4-methylcyclohexyl)methyl]-7H-purin-2-yl}-1,2,4-oxadiazol-5(4H)-one]
IC50 (Table 11): 16.2 nM

C[C@@H](Nc1nc(N2CC(C(=O)O)C(C)(C)C2)nc2nc(N3CCOC[C@H]3c3ccccc3)n(C[C@H]3CC[C@H](C)CC3)c12)C1CCC1 (stereo partly drawn) [Example 13.11, 1-(6-{[(1R)-1-cyclobutylethyl]amino}-7-[(trans-4-methylcyclohexyl)methyl]-8-[(3R)-3-phenylmorpholin-4-yl]-7H-purin-2-yl)-4,4-dimethylpyrrolidine-3 - carboxylic acid]
IC50 [1]: 95.9 nM

Cc1ocnc1C1(c2nc3nc(-c4noc(=O)[nH]4)nc(-c4cccc(Cl)c4)c3n2C[C@H]2CC[C@H](C)CC2)CC1 [Example 23.101, 3-{6-(3-chlorophenyl)-7-[(trans-4-methylcyclohexyl)methyl]-8-[1-(5-methyl-1,3-oxazol-4-yl)cyclopropyl]-7H-purin-2-yl}-1,2,4-oxadiazol-5(4H)-one]
IC50 (Table 23): 30.1 nM

Cc1cccc(-c2nc3nc(C(=O)O)nc(N4Cc5ccccc5C4)c3n2Cc2ccc(C(F)(F)F)cc2)c1 [Example 6.66, 6-(1,3-dihydro-2H-isoindol-2-yl)-8-(3-methylphenyl)-7-[4-(trifluoromethyl)benzyl]-7H-purine-2-carboxylic acid]
inhibition at 1 µM (read-out: inh. at 1000 nM (FRET)): 46%

Cc1cccc(-c2nc3nc(C(=O)NS(C)(=O)=O)nc(N[C@H](C)C4CC4)c3n2Cc2ccc(C(F)(F)F)cc2)c1 [Example 12.25, 6-{[(1R)-1-cyclopropylethyl]amino}-8-(3-methylphenyl)-N-(methylsulfonyl)-7-[4-(trifluoromethyl)benzyl]-7H-purine-2-carboxamide]
IC50 [1]: 1070 nM

C[C@H](Nc1nc2nc(C(=O)O)nc(N[C@H](C)C3CCC3)c2n1Cc1ccc(C(F)(F)F)cc1)c1ccc(F)cc1 [Example 9.1, 6-{[(1R)-1-cyclobutylethyl]amino}-8-{[(1S)-1-(4-fluorophenyl)ethyl]amino}-7-[4-(trifluoromethyl)benzyl]-7H-purine-2-carboxylic acid]
IC50 (Table 9): 1.81 nM

C[C@@H](Nc1nc(-c2noc(=O)[nH]2)nc2nc(-c3nccs3)n(C[C@H]3CC[C@H](C)CC3)c12)C1CCC1 [Example 15.12, 3-(6-(((R)-1-cyclobutylethyl)amino)-7-((trans-4-methylcyclohexyl)methyl)-8-(thiazol-2-yl)-7H-purin-2-yl)-1,2,4-oxadiazol-5(4H)-one]
IC50 [1]: 6.28 nM

Cc1cccc(-c2nc3nc(C(=O)O)nc(NCc4ccccc4)c3n2Cc2ccc(C(F)(F)F)cc2)c1 [Example 6.29, 6-(benzylamino)-8-(3-methylphenyl)-7-[4-(trifluoromethyl)benzyl]-7H-purine-2-carboxylic acid]
IC50 (Table 6): 1770 nM

C[C@@H](Nc1nc(-c2noc(=O)[nH]2)nc2nc(C(C)(O)C(F)(F)F)n(C[C@H]3CC[C@H](C)CC3)c12)C1CCC1 (single isomer, unassigned) [Example 22.12]
IC50 (Table 22): 26.7 nM

COC[C@@H]1CC[C@@H](COC)N1c1nc2nc(-c3noc(=O)[nH]3)nc(-c3cccc(Cl)c3)c2n1C[C@H]1CC[C@H](C)CC1 [Example 16.149, 3-{8-[(2S,5S)-2,5-bis(methoxymethyl)pyrrolidin-1-yl]-6-(3-chlorophenyl)-7-[(trans-4-methylcyclohexyl)methyl]-7H-purin-2-yl}-1,2,4-oxadiazol-5(4H)-one]
IC50 [1]: 3.77 nM

C[C@@H](Nc1nc(-c2noc(=O)[nH]2)nc2nc(C(C)(O)c3ccncc3)n(C[C@H]3CC[C@H](C)CC3)c12)C1CCC1 (stereo partly drawn) [Example 22.36, 3-(6-{[(1R)-1-cyclobutylethyl]amino}-8-(1-hydroxy-1-pyridin-4-ylethyl)-7-[(trans-4-methylcyclohexyl)methyl] -7H-purin-2-yl)-1,2,4-oxadiazol-5(4H)-one]
IC50 (Table 22): 13.6 nM

C[C@H]1CC[C@H](Cn2c(Sc3ccccc3)nc3nc(-c4n[nH]c(=O)o4)nc(-c4cncc(Cl)c4)c32)CC1 [Example 19.6, 5-[6-(5-chloropyridin-3-yl)-7-[(trans-4-methylcyclohexyl)methyl]-8-(phenylsulfanyl)-7H-purin-2-yl]-1,3,4-oxadiazol-2(3H)-one]
IC50 (Table 19): 3.14 nM

CC1CCCN(c2nc3nc(C(=O)O)nc(N[C@H](C)C4CCC4)c3n2Cc2ccc(C(F)(F)F)cc2)C1 (stereo partly drawn) [Example 9.40, 6-{[(1R)-1-cyclobutylethyl]amino}-8-(3-methylpiperidin-1-yl)-7-[4-(trifluoromethyl)benzyl]-7H-purine-2-carboxylic acid]
IC50 (Table 9): 12.2 nM

CC(C)CN(C)C(C)c1nc2nc(C(=O)O)nc(N[C@H](C)C3CCC3)c2n1Cc1ccc(C(F)(F)F)cc1 (stereo partly drawn) [Example 10.9, 6-(((R)-1-cyclobutylethyl)amino)-8-(1-(isobutyl(methyl)amino)ethyl)-7-(4-(trifluoromethyl)benzyl)-7H-purine-2-carboxylic acid]
IC50 (Table 10): 21.2 nM

Cc1cccc(-c2nc3nc(C(=O)O)nc(N[C@H](C)c4cccc(Cl)c4)c3n2Cc2ccc(C(F)(F)F)cc2)c1 [Example 6.27, 6-{[(1R)-1-(3-chlorophenyl)ethyl]amino}-8-(3-methylphenyl)-7-[4-(trifluoromethyl)benzyl]-7H-purine-2-carboxylic acid]
IC50 (Table 6): 2360 nM

C[C@@H](Nc1nc(-c2noc(=O)[nH]2)nc2nc(C(C)(O)c3cccnc3)n(C[C@H]3CC[C@H](C)CC3)c12)C1CCC1 (stereo partly drawn) [Example 22.51, 3-(6-{[(1R)-1-cyclobutylethyl]amino}-8-(1-hydroxy-1-pyridin-3-ylethyl)-7-[(trans-4-methylcyclohexyl)methyl] -7H-purin-2-yl)-1,2,4-oxadiazol-5(2H)-one]
IC50 (Table 22): 21.2 nM

CC(O)c1nc2nc(-c3noc(=O)[nH]3)nc(N[C@H](C)C3CCC3)c2n1C[C@H]1CC[C@H](C)CC1 (single isomer, unassigned) [Example 22.14]
IC50 (Table 22): 81.1 nM

C[C@@H](Nc1nc(-c2n[nH]c(=O)o2)nc2nc(C(=O)c3ccccc3)n(C[C@H]3CC[C@H](C)CC3)c12)C1CCC1 [Example 22.22, 5-[6-{[(1R)-1-cyclobutylethyl]amino}-7-[(trans-4-methylcyclohexyl)methyl]-8-(phenylcarbonyl)-7H-purin-2-yl]-1,3,4-oxadiazol-2(3H)-one]
IC50 (Table 22): 3.93 nM

Cc1ncc(Cl)cc1-c1nc(-c2n[nH]c(=O)o2)nc2nc(N3CCOC[C@H]3c3ccccc3)n(C[C@H]3CC[C@H](C)CC3)c12 [Example 16.159, 5-{6-(5-chloro-2-methylpyridin-3-yl)-7-[(trans-4-methylcyclohexyl)methyl]-8-[(3R)-3-phenylmorpholin-4-yl]-7H -purin-2-yl}-1,3,4-oxadiazol-2(3H)-one]
IC50 [1]: 0.704 nM

C[C@@H](Nc1nc(-c2noc(=O)[nH]2)nc2nc(N3CCOCC3c3ccccc3Cl)n(C[C@H]3CC[C@H](C)CC3)c12)C1CCC1 (stereo partly drawn) [Example 11.100, 3-{8-[3-(2-chlorophenyl)morpholin-4-yl]-6-{[(1R)-1-cyclobutylethyl]amino}-7-[(trans-4-methylcyclohexyl)methyl]-7H-purin-2-yl}-1,2,4-oxadiazol-5(4H)-one]
IC50 (Table 11): 0.936 nM

CC([C@H]1CC[C@H](C)CC1)n1c(N2CCOC[C@H]2C)nc2nc(-c3n[nH]c(=O)o3)nc(-c3cccc(Cl)c3)c21 (single isomer, unassigned) [Example 18.36]
IC50 (Table 18): 8.87 nM
